Measured values: ChEMBL document CHEMBL4184250, “Structure-activity studies of a macrocyclic peptide inhibitor of histone lysine demethylase 4A” (Bioorg Med Chem, 2018)
Where a SMILES comes first, the peptide text is derived from it. Bridges are numbered along the chain shown (N, C = ends). [ ]: non-standard residue; d: D form. NMeI = CC[C@H](C)[C@H](NC)C(=O)O; NMeC = CN[C@@H](CS)C(=O)O

Assays:
[1] = Drug uptake in human MCF7 cells assessed as cell area stained at 10 uM after 3 hrs by Hoechst 33342 staining based confocal microscopic analysis; format: ADME; details: mcf7, 3 h
[2] = target: T1, Lysine-specific demethylase 4C (Homo sapiens, UniProt Q9H3R0); assay: Inhibition of KDM4C (unknown origin) expressed in Escherichia coli using biotinylated peptide as substrate pretreated for 15 mins followed by substrate addition by Alphascreen assay
T1 sequence (Q9H3R0 whole entry): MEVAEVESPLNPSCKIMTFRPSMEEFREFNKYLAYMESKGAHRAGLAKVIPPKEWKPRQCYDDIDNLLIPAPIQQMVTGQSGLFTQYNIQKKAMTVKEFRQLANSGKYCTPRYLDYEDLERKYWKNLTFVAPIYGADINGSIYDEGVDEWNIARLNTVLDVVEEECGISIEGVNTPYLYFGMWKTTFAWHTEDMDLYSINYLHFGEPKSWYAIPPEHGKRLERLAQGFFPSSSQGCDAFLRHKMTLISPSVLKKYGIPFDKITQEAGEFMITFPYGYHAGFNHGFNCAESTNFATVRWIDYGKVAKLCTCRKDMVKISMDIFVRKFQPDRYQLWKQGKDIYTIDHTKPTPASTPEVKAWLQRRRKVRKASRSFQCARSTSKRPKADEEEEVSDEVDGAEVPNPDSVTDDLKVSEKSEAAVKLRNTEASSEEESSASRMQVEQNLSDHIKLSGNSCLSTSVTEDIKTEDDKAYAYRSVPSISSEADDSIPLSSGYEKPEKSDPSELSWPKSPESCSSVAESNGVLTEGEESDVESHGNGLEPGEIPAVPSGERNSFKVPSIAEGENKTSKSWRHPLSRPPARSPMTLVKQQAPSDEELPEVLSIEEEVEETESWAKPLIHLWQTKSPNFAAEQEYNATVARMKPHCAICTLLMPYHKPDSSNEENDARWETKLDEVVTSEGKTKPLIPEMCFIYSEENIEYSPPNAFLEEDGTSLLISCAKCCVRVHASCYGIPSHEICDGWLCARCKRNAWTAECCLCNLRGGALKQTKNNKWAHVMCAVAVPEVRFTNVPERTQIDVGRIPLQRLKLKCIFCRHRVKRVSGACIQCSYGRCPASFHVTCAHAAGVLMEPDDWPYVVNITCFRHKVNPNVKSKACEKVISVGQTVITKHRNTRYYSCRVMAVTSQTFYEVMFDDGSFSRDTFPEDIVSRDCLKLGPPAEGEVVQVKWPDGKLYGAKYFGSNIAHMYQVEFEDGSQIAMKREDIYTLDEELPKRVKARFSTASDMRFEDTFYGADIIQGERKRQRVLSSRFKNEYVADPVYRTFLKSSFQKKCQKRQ

[3] = target: T2, Lysine-specific demethylase 4A (Homo sapiens, UniProt O75164); assay: Inhibition of KDM4A (unknown origin) expressed in Escherichia coli using biotinylated peptide as substrate pretreated for 15 mins followed by substrate addition by Alphascreen assay
T2 sequence (O75164 whole entry): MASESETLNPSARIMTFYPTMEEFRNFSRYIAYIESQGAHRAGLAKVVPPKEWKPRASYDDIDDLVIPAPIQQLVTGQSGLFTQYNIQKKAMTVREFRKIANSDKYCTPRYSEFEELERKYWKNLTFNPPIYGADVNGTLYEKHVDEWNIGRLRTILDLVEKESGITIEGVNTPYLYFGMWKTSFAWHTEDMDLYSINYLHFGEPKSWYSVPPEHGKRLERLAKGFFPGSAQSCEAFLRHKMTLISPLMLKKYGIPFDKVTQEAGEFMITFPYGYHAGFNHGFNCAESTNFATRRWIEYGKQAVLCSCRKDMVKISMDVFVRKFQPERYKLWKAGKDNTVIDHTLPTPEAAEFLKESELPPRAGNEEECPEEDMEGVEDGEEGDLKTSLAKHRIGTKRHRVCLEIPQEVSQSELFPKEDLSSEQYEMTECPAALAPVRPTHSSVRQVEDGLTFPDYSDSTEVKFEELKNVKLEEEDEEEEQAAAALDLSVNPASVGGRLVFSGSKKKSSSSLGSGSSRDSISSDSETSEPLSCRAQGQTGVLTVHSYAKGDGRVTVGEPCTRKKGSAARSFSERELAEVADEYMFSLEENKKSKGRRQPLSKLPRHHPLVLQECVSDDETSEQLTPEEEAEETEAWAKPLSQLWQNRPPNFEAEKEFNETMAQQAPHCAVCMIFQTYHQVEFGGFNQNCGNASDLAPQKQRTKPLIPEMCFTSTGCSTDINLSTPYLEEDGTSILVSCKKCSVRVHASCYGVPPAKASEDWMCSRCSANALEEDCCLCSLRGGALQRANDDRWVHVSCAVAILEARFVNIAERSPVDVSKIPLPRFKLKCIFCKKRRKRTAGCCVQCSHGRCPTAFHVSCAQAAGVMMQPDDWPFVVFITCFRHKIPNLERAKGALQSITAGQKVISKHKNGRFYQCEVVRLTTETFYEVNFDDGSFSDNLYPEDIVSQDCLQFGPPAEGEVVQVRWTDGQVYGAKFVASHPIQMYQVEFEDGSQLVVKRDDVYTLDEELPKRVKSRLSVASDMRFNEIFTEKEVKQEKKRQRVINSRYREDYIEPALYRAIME

[4] = target: T2, Lysine-specific demethylase 4A; assay: Binding affinity to biotinylated-KDM4A (unknown origin) at 300 nM by bio-layer interferometric method; details: read-out: Kd(app)
[5] = target: T2, Lysine-specific demethylase 4A; assay: Inhibition of full length FLAG-tagged KDM4A (unknown origin) expressed in human HeLa cells assessed as increase in H3K9me3 levels after 24 hrs by DAPI staining based immunofluorescence assay; format: cell-based
[6] = Drug localization in lysosomes of human MCF7 cells at 10 uM after 3 hrs by Lysotracker red DND-99 staining based confocal microscopic analysis; format: ADME, subcellular, Lysosome; details: mcf7, 3 h

Drug uptake [1]	IC50 [2] [nM]	IC50 [3] [nM]	Kd [4] [nM]	EC50 ([5]; hela) [nM]	Drug uptake [6]	EC50 [5] [nM]	Structure (SMILES)
2.9%	22	43	3.7	–	–	–	CC[C@H](C)[C@@H]1NC(=O)[C@H](Cc2c[nH]c3ccccc23)NC(=O)CNC(=O)[C@H](CO)NC(=O)[C@H](CCCNC(=N)N)NC(=O)[C@H](C(C)C)NC(=O)[C@H](C(C)C)NC(=O)[C@H](CCCNC(=N)N)NC(=O)[C@H]([C@@H](C)CC)NC(=O)[C@@H](Cc2ccc(O)cc2)NC(=O)CSC[C@@H](C(N)=O)NC(=O)[C@H](Cc2c[nH]c3ccccc23)NC1=O
92.7%	38	15	3.1	> 50000	–	–	CC[C@H](C)[C@@H]1NC(=O)[C@H](CCCNC(=N)N)NC(=O)[C@H]([C@@H](C)CC)NC(=O)[C@@H](Cc2ccc(O)cc2)NC(=O)CSC[C@@H](C(N)=O)NC(=O)[C@H](Cc2c[nH]c3ccccc23)NC(=O)[C@H](CC(C)C)NC(=O)[C@H](Cc2c[nH]c3ccccc23)NC(=O)[C@@H](C)NC(=O)[C@H](CO)NC(=O)[C@H](CCCNC(=N)N)NC(=O)[C@H](CCCNC(=N)N)NC1=O
97.1%	173	208	14	> 50000	–	–	CC[C@H](C)[C@@H]1NC(=O)[C@H](CCCNC(=N)N)NC(=O)[C@@H]2CCCN2C(=O)[C@@H](Cc2ccc(O)cc2)NC(=O)CSC[C@@H](C(N)=O)NC(=O)[C@H](Cc2c[nH]c3ccccc23)NC(=O)[C@H](CCCNC(=N)N)NC(=O)[C@H]([C@@H](C)CC)NC(=O)[C@@H](C)NC(=O)[C@H](CO)NC(=O)[C@H](CCCNC(=N)N)NC(=O)[C@H](CCCNC(=N)N)NC1=O
Active	–	–	–	–	Active	–	N=C(N)NCCC[C@@H]1NC(=O)CNC(=O)[C@H](Cc2ccc(O)cc2)NC(=O)CSC[C@@H](C(N)=O)NC(=O)[C@H](CCCNC(=N)N)NC(=O)[C@H](CCCNC(=N)N)NC(=O)[C@H](CCCNC(=N)N)NC(=O)[C@H](CCC(N)=O)NC(=O)[C@H](CCCNC(=N)N)NC(=O)[C@H](CCCCN)NC(=O)[C@H](CCCCN)NC(=O)[C@H](CCCCN)NC1=O ({CH2CO}-YGRKKKRQRRRC-NH2; thioether N-12)
18%	53	34	8.3	–	–	> 50000	CC[C@H](C)[C@@H]1NC(=O)[C@H](CCCNC(=N)N)NC(=O)[C@H]([C@@H](C)CC)NC(=O)[C@H](Cc2ccc(O)cc2)NC(=O)CSC[C@@H](C(N)=O)N(C)C(=O)[C@H](Cc2c[nH]c3ccccc23)NC(=O)[C@H](CC(C)C)NC(=O)[C@H](Cc2c[nH]c3ccccc23)NC(=O)CNC(=O)[C@H](CO)NC(=O)[C@H](CCCNC(=N)N)NC(=O)[C@H](CCCNC(=N)N)NC1=O ({CH2CO}-YIRIRRSGWLW[NMeC]-NH2; thioether N-12)
12.1%	23	31	16	–	–	–	CC[C@H](C)[C@@H]1NC(=O)[C@H](CCCNC(=N)N)NC(=O)[C@H]([C@@H](C)CC)NC(=O)[C@H](Cc2ccc(O)cc2)NC(=O)CSC[C@@H](C(N)=O)NC(=O)[C@H](Cc2c[nH]c3ccccc23)NC(=O)[C@H](C(C)C)NC(=O)[C@H](Cc2c[nH]c3ccccc23)NC(=O)CNC(=O)[C@H](CO)NC(=O)[C@H](CCCNC(=N)N)NC(=O)[C@H](CO)NC1=O ({CH2CO}-YIRISRSGWVWC-NH2; thioether N-12)
3.4%	151	81	173	–	–	–	CC[C@H](C)[C@@H]1NC(=O)[C@H](CC(C)C)NC(=O)[C@H](Cc2ccc(O)cc2)NC(=O)CSC[C@@H](C(N)=O)NC(=O)[C@H](Cc2c[nH]c3ccccc23)NC(=O)[C@H](C(C)C)NC(=O)[C@H](CC(C)C)NC(=O)CNC(=O)[C@H](CO)NC(=O)[C@H](CCCNC(=N)N)NC(=O)[C@H](CCCNC(=N)N)NC(=O)[C@H](C(C)C)NC1=O ({CH2CO}-YLIVRRSGLVWC-NH2; thioether N-12)
1.7%	154	82	49	–	–	–	CC[C@H](C)[C@@H]1NC(=O)[C@H](CC(C)C)NC(=O)CNC(=O)[C@H](CO)NC(=O)[C@H](CCCNC(=N)N)NC(=O)[C@H](C(C)C)NC(=O)[C@H](C(C)C)NC(=O)[C@H](CCCCN)NC(=O)[C@@H]2CCCN2C(=O)[C@H](Cc2ccc(O)cc2)NC(=O)CSC[C@@H](C(N)=O)NC(=O)[C@H](Cc2c[nH]c3ccccc23)NC1=O ({CH2CO}-YPKVVRSGLIWC-NH2; thioether N-12)
28.2%	164	373	9	–	–	> 50000	CC[C@H](C)[C@@H]1NC(=O)CNC(=O)[C@H](CO)NC(=O)[C@H](CCCNC(=N)N)NC(=O)[C@H](CCCNC(=N)N)NC(=O)[C@H]([C@@H](C)CC)NC(=O)[C@H](CCCNC(=N)N)NC(=O)[C@@H]2CCCN2C(=O)[C@H](Cc2ccc(O)cc2)NC(=O)CSC[C@@H](C(N)=O)N(C)C(=O)[C@H](Cc2c[nH]c3ccccc23)NC(=O)[C@H](CCCNC(=N)N)NC1=O ({CH2CO}-YPRIRRSGIRW[NMeC]-NH2; thioether N-12)
0.8%	55	41	21	–	–	–	CC[C@H](C)[C@@H]1NC(=O)[C@H](Cc2c[nH]c3ccccc23)NC(=O)CNC(=O)[C@H](CO)NC(=O)[C@H](CCCNC(=N)N)NC(=O)[C@H](CCCCN)NC(=O)[C@H]([C@@H](C)CC)NC(=O)[C@H](CO)NC(=O)[C@@H]2CCCN2C(=O)[C@H](Cc2ccc(O)cc2)NC(=O)CSC[C@@H](C(N)=O)NC(=O)[C@H](Cc2c[nH]c3ccccc23)NC1=O ({CH2CO}-YPSIKRSGWIWC-NH2; thioether N-12)
55.6%	12	11	14	–	–	> 50000	CC[C@H](C)[C@@H]1NC(=O)[C@H](CCCNC(=N)N)NC(=O)[C@H]([C@@H](C)CC)N(C)C(=O)[C@H](Cc2ccc(O)cc2)NC(=O)CSC[C@@H](C(N)=O)NC(=O)[C@H](Cc2c[nH]c3ccccc23)NC(=O)[C@H](CC(C)C)NC(=O)[C@H](Cc2c[nH]c3ccccc23)NC(=O)CNC(=O)[C@H](CO)NC(=O)[C@H](CCCNC(=N)N)NC(=O)[C@H](CCCNC(=N)N)NC1=O ({CH2CO}-Y[NMeI]RIRRSGWLWC-NH2; thioether N-12)
